ChEMBL document CHEMBL3399980, “Synthesis and biological evaluation of novel selective androgen receptor modulators (SARMs). Part I” (Bioorg Med Chem, 2015)

What was measured:
[1] = target: T1, Androgen receptor (Homo sapiens, UniProt P10275); assay: Displacement of [3H]mibolerone from androgen receptor (unknown origin) after 3 hrs
T1 sequence (P10275 whole entry): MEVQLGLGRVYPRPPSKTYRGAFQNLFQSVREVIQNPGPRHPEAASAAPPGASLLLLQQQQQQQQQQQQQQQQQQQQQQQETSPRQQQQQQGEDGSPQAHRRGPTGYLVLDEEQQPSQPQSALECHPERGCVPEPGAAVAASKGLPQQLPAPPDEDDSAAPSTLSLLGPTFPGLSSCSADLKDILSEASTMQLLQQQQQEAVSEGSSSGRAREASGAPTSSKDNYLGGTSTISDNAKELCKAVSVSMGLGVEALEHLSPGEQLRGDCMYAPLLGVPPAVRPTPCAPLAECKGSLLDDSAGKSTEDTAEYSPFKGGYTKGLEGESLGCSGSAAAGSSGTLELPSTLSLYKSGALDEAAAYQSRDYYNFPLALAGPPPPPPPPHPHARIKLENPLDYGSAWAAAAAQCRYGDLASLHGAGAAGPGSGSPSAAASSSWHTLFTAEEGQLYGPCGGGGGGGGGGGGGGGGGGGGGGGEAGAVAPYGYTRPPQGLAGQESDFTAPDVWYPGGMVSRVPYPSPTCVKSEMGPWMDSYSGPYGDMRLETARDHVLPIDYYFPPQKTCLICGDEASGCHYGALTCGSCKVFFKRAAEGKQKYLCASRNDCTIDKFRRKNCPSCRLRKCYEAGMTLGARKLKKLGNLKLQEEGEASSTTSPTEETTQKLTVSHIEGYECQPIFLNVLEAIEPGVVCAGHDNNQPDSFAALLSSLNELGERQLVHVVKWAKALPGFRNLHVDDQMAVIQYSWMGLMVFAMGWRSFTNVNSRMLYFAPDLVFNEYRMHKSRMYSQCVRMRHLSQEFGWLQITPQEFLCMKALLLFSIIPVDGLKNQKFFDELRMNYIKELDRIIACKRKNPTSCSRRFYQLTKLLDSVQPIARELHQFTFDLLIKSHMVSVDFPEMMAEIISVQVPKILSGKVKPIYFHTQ

[2] = target: T1, Androgen receptor; assay: Modulation of androgen receptor (unknown origin) expressed in Cos7 cells assessed as luciferase activity after 24 hrs; assay type: cell-based, COS-7
[3] = test system: Rattus norvegicus; assay: Induction of levator ani muscle weight in male CD(SD)IGS rat at 1.5 mg/kg, po bid for 4 days by Hershberger assay; assay type: functional
[4] = test system: Rattus norvegicus; assay: Induction of sexual behavior in castrated male CD(SD)IGS rat assessed as pseudopregnancy rate in female rat at 0.5 mg/kg, po bid measured on day 21 after first treatment (reference value: 0%); assay type: functional
[5] = test system: Rattus norvegicus; assay: Induction of sexual behavior in castrated male CD(SD)IGS rat assessed as pseudopregnancy rate in female rat at 5 mg/kg, po bid measured on day 21 after first treatment (reference value: 0%); assay type: functional
[6] = test system: Rattus norvegicus; assay: Toxicity in male CD(SD)IGS rat assessed as effect on seminal vesicle weight at 1.5 mg/kg, po bid for 4 days by Hershberger assay; assay type: organism-based; set-up: dose 1.5 mg/kg, route oral; settings: in vivo, 96 h
[7] = test system: Rattus norvegicus; assay: Toxicity in male CD(SD)IGS rat assessed as effect on prostate weight at 1.5 mg/kg, po bid for 4 days by Hershberger assay; assay type: organism-based, Prostate gland; set-up: dose 1.5 mg/kg, route oral; settings: in vivo, 96 h
[8] = test system: Rattus norvegicus; assay: Induction of sexual behavior in castrated male CD(SD)IGS rat assessed as pseudopregnancy rate in female rat at 1.5 mg/kg, po bid measured on day 21 after first treatment (reference value: 0%); assay type: functional
[9] = Drug uptake in male Sprague-Dawley rat levator ani muscle at 5 mg/kg, po; assay type: ADME, organism-based; set-up: dose 5 mg/kg, route oral; settings: in vivo
[10] = test system: Rattus norvegicus; assay: Induction of sexual behavior in castrated male CD(SD)IGS rat assessed as pseudopregnancy rate in female rat at 3.5 mg/kg, po bid measured on day 21 after first treatment (reference value: 0%); assay type: functional
[11] = test system: Brain; assay: Drug uptake in male Sprague-Dawley rat brain at 5 mg/kg, po; assay type: ADME, organism-based; set-up: dose 5 mg/kg, route oral; settings: in vivo
[12] = test system: Prostate gland; assay: Drug uptake in male Sprague-Dawley rat prostate at 5 mg/kg, po; assay type: ADME, organism-based; set-up: dose 5 mg/kg, route oral; settings: in vivo
[13] = test system: Plasma; assay: Drug uptake in male Sprague-Dawley rat plasma at 5 mg/kg, po; assay type: ADME, organism-based; set-up: dose 5 mg/kg, route oral; settings: in vivo
[14] = test system: Rattus norvegicus; assay: Induction of sexual behavior in castrated male CD(SD)IGS rat assessed as pseudopregnancy rate in female rat at 2.5 mg/kg, po bid measured on day 21 after first treatment (reference value: 0%); assay type: functional

Compound | IC50 [1] | EC50 [2] | further results
CC1(C)CCCN1c1ccc(C#N)c2ccccc12 | 7 nM | 21 nM | –
N#Cc1ccc(N2CCC[C@@H]2C#N)c2ccccc12 | 1 nM | 160 nM | –
N#Cc1ccc(N2CCCC2)c2ccccc12 | 2.5 nM | 2.5 nM | –
O=C(O)c1ccc(N2CCCC2)c2ccccc12 | > 10000 nM | – | –
C[C@@H]1CCCN1c1ccc(C#N)c2ccccc12 | 20 nM | > 1000 nM | –
CC[C@H]1CCCN1c1ccc(C#N)c2ccccc12 | 1.1 nM | 0.24 nM | –
C[C@H]1[C@@H](CO)CCN1c1ccc(C#N)c2ccccc12 | 4.1 nM | 1.2 nM | –
C[C@H]1C(=O)CCN1c1ccc(C#N)c2ccccc12 | 37 nM | 2.2 nM | –
C[C@H]1[C@H](O)CCN1c1ccc(C#N)c2ccccc12 | 2.4 nM | 0.32 nM | Activity [3]: 150%; Activity [4]: 38%; Activity [5]: 67%; Activity [6]: Non-toxic; Activity [7]: Non-toxic; Activity [8]: 67%
C[C@H]1[C@@H](O)CCN1c1ccc(C#N)c2ccccc12 | 2.2 nM | 0.25 nM | Activity [3]: 150%; Activity [4]: 44%; Activity [5]: 80%; Activity [6]: Non-toxic; Activity [7]: Non-toxic; Activity [8]: 70%
CC(C)[C@H]1CCCN1c1ccc(C#N)c2ccccc12 | 1.4 nM | 2 nM | –
C[C@H]1CCCN1c1ccc(C#N)c2ccccc12 | 0.84 nM | 0.19 nM | –
C[C@H]1[C@@H](C(C)(C)O)CCN1c1ccc(C#N)c2ccccc12 | 1.4 nM | 45 nM | Drug uptake [9]: Active; Activity [10]: 57%; Drug uptake [11]: Active; Activity [5]: 50%; Activity [6]: Non-toxic; Drug uptake [12]: Active; Activity [7]: Non-toxic; Drug uptake [13]: Active; Activity [14]: 57%
N#Cc1ccc(N2CCC[C@@H]2C(N)=O)c2ccccc12 | 34 nM | 21 nM | –
O=[N+]([O-])c1ccc(N2CCCC2)c2ccccc12 | 2.5 nM | 41 nM | –
COC(=O)[C@H]1CCN(c2ccc(C#N)c3ccccc23)[C@H]1C | 7.5 nM | > 1000 nM | –
